Test results as given in patent publication US20260315499A1, “2'- {HETEROCYCLYL (ARYL/ALKYL) METHYL} - CANNABIDIOL COMPOUNDS AND PROCESS FOR PREPARATION THEREOF” (COUNCIL OF SCIENTIFIC & INDUSTRIAL RESEARCH, priority 2023, published 2026).
“And” between values parts separate entries of the source, which are not always exact repeats. Equal entries are not always repeated.

What was measured:
[1] = tested on: p TrkB 515; assay: Survival pathway protein expression by western blotting in SHSY5Y; format: cell-based, human; details: DHF/Cort., 6 hrs
[2] = tested on: p-AKT 473; assay: as above; format: cell-based, human; details: 6 hrs
Description: (§1) Here, A1 was tested to find its role in eliciting survival pathway proteins in differentiated human neuroblastoma cells in concentration and time dependent manner.
To investigate the effect of A1 on the survival proteins, […] of survival proteins, including p-Erk 44/42, p-AKT 473, Anti BDNF, and p TrkB 816 and p TrKB 515 by western blotting.

[3] = tested on: p TrkB 816; assay: as above; format: cell-based, human; details: DHF/Cort., 6 hrs
[4] = tested on: differentiated SHSY5Y cell cultures; assay: Neuroprotective potential in differentiated SHSY5Y after 96 hrs, concentration series with and without corticosterone; format: cell-based, human; details: DHF 5 nM, without Cort, 96 hrs
[5] = tested on: differentiated SHSY5Y cell cultures; assay: as above; format: cell-based, human; details: DHF 5 nM + Cort 400 μM, 96 hrs
Text: Furthermore, A1 intervention in presence of corticosterone evidenced neuroprotective effect against corticosterone induced impairment and cell death.

[6] = tested on: p-Erk 44/42; assay: Survival pathway protein expression by western blotting in SHSY5Y; format: cell-based, human; details: 6 hrs
Description: as §1
(§2) To investigate the effect of A1 on the survival proteins, SHSY5Y cell cultures were treated with different concentrations for 6 hrs and analyzed for the expression of survival proteins, including p-Erk 44/42, p-AKT 473, Anti BDNF, and p TrkB 816 and p TrKB 515 by western blotting.

[7] = tested on: p TrkB 816; assay: as above; format: cell-based, human; details: DHF 5 nM, 6 hrs
Description: as §1, §2

[8] = tested on: p TrkB 515; assay: as above; format: cell-based, human; details: DHF 5 nM, 6 hrs
Description: as §1, §2

[9] = tested on: Anti BDNF; assay: as above; format: cell-based, human; details: 6 hrs
Description: as §1, §2

[10] = In vivo corticosterone induced depression model: effect on body weight; set-up: species or system mouse (male C57); details: A1 20 mg/kg oral, fluoxetine 18 mg/kg, 21 days
Description: (§3) In vivo efficacy (ameliorates behavioral despair) of A1 in corticosterone induced model of stress (J. Neurochem., 2018 146, 722 734). […] A1 (20 mg/kg, oral) dissolved in normal saline was given for 3 consecutive weeks following corticosteroid stress. The sucrose preference test was employed, tail suspension test, and forced swim test to evaluate behavioral distress. We noticed that A1 can resurrect mice in stressful situations. […]

[11] = tested on: depression mice model; assay: In vivo corticosterone induced depression model: Forced Swim Test; set-up: species or system mouse (male C57)
Description: as §3
The forced swim test was employed to evaluate behavioral melancholy in depressed subjects. Each animal was individually conditioned in a glass cylinder 20 cm long, 10 cm deep and 14 cm radius of curvature. After being submerged in water for 5 mins, the mice's cumulative stationary episode, struggle in water, and eventual floating condition were evaluated. The duration for which the animals were motionless while attempting to hold both of their front limbs still was calculated by interpreting the visualizations portraying behavioral despair (Front Behav Neurosci., 2018, 12, 42).

[12] = tested on: depression mice model; assay: In vivo corticosterone induced depression model: Tail Suspension Test (TST); set-up: species or system mouse (male C57); details: A1 20 mg/kg, fluoxetine 18 mg/kg
Description: A1 (20 mg/kg, oral) dissolved in normal saline was given for 3 consecutive weeks following corticosteroid stress. The sucrose preference test was employed, tail suspension test, and forced swim test to evaluate behavioral distress.
Tail Suspension Test (TST) is a behavioral test employed to assess perturbations expected to influence depression like phenotypes. TST is grounded on the reflection that the extent of immobility is allied with depressing phenotype of mice overturned by antidepressants. Mice were positioned 2 cm from their tail tips and 5 cm above the ground suspending the tails using adhesive tape for the free movement (Acta Neuropathol Commun., 2016, 4(1), 108).
The contemporary immobility was alluded to as interruption in motion, where a blind assessor evaluates the disappointed aspect of display before scoring it.

[13] = tested on: depression mice model; assay: In vivo corticosterone induced depression model: sucrose preference test; set-up: species or system mouse (male C57); details: 2% sucrose, 21 days
Description: as §3
Sucrose consumption was employed to evaluate anhedonia, a core hallmark of depression in mice. The animals were allowed unfettered access to both identical bottles, one containing water while the other contained a 2% solution of sucrose, for 21 days.
The below equation was later employed to determine water and sugar consumed by mice:
Sucrose Preference=Sucrose consumed[…]/Total fluid intake.

Compound: O=c1cc(-c2ccccc2)oc2c(O)c(O)ccc12 [DHF, reference compound]
- Relative Protein Expression p TrkB 515 [1]: 2.11
- Relative Protein Expression PAKT 473 ([2]; DHF 5 nM): 1.42
- Relative Protein Expression PAKT 473 ([2]; DHF/Cort.): 0.96
- Relative Protein Expression p TrkB 816 [3]: 0.71
- Cell viability [4]: 113.7
- Cell viability [5]: 104.3
- Relative Protein Expression p ERK 44/42 ([6]; DHF 5 nM): 5.28
- Relative Protein Expression p ERK 44/42 ([6]; DHF/Cort.): 5.00
- Relative Protein Expression p TrkB 816 [7]: 1.55
- Relative Protein Expression p TrkB 515 [8]: 2.43
- Relative Protein Expression Anti BDNF ([9]; DHF 5 nM): 1.03
- Relative Protein Expression Anti BDNF ([9]; DHF/Cort.): 0.53

Compound: CNCCC(Oc1ccc(C(F)(F)F)cc1)c1ccccc1 (stereo not shown) [Fluoxetine]
- Weight (g) ± SD ([10]; with Cort. 35 μg/ml): 38 ± 2.16 g
- Weight (g) ± SD ([10]; without Cort.): 40.42 ± 2.25 g
- % Immobility (sec) ± SD (dead time) ([11]; with Cort.): 47.84 ± 10.33 s
- % Latency to immobility (sec) ± SD ([11]; with Cort.): 34.06 ± 11.21 s
- % Immobility (sec) ± SD (dead time) ([11]; with Cort., listed as fluoxetine): 47.84 ± 10.33 s
- % Immobility (sec) ± SD (dead time) ([11]; without Cort.): 22.39 ± 4.91 s
- % Latency to immobility (sec) ± SD ([11]; without Cort.): 55.34 ± 15.71 s
- % Latency to immobility (sec) ± SD ([12]; with Cort. 35 μg/ml): 34.79 ± 6.38 s
- % Latency to immobility (sec) ± SD ([12]; with Cort. 35 μg/ml, listed as fluoxetine): 34.79 ± 6.38 s
- % Immobility (sec) ± SD (dead time) ([12]; without Cort.): 19.61 ± 7.90 s and 19.61 s
- % Latency to immobility (sec) ± SD ([12]; without Cort.): 49.51 ± 7.84 s and 49.51 ± 7.82 s
- % Sucrose consumption (ml) ± SD ([13]; with Cort.): 72.39 ± 2.69%
- % Sucrose consumption (ml) ± SD ([13]; without Cort.): 82.10 ± 0.29%
